{"source": "paper PMC4756048", "about": "(Clinical Pharmacokinetics, 2015)", "key": {"CYP1A2": {"system": "CYP1A2", "settings": "caffeine; cited from earlier work"}, "CYP3A (intestinal)": {"system": "CYP3A (intestinal)", "settings": "cited from earlier work"}, "MRP2 [1]": {"system": "MRP2", "settings": "in vitro; data on file; cited from earlier work"}, "P-gp [2]": {"system": "P-gp", "settings": "in vitro; cited from earlier work"}, "CYP2C8": {"system": "CYP2C8", "settings": "in vitro; cited from earlier work"}, "plasma proteins": {"system": "plasma proteins", "settings": "largely to albumin; cited from earlier work"}, "CYP2A6": {"system": "CYP2A6", "settings": "in vitro; cited from earlier work"}, "BCRP": {"system": "BCRP", "settings": "in vitro; cited from earlier work"}, "[3]": {"settings": "cited from earlier work"}, "[4]": {"format": "in vivo, human", "settings": "data on file"}, "[5]": {"system": "bile salt export pump (BSEP)", "settings": "in vitro; cited from earlier work"}, "[6]": {"system": "breast cancer resistance protein (BCRP)", "settings": "in vitro; data on file; cited from earlier work"}, "OATP1B3 [7]": {"system": "OATP1B3", "settings": "in vitro; data on file; cited from earlier work"}, "CYP2D6": {"system": "CYP2D6", "settings": "in vitro; cited from earlier work"}, "CYP3A [8]": {"system": "CYP3A", "settings": "in vitro; cited from earlier work"}, "OATP1B3 [9]": {"system": "OATP1B3", "settings": "in vitro; cited from earlier work"}, "MRP2 [10]": {"system": "MRP2", "settings": "in vitro; cited from earlier work"}, "cathepsin A": {"biological_target": "T1, cathepsin A (Homo sapiens, UniProt P10619)", "T1 sequence (P10619 29-480)": "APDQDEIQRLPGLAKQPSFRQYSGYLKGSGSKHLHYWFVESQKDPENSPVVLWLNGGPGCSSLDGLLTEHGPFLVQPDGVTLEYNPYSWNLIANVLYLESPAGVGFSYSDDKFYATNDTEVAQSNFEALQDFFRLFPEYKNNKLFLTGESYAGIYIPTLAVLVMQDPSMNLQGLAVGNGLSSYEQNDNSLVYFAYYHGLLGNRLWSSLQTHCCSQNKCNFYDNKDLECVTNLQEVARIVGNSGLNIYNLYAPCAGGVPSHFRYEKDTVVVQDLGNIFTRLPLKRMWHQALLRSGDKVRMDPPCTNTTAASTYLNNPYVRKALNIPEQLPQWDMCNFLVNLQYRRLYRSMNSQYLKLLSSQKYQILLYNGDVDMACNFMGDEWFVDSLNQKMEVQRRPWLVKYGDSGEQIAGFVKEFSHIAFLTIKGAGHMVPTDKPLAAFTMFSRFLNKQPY", "test": "In vitro cathepsin A inhibition", "format": "biochemical", "settings": "data on file"}, "[11]": {"biological_target": "T2, sodium taurocholate cotransporting polypeptide (NTCP) (Homo sapiens, UniProt Q14973)", "T2 sequence (Q14973 1-349)": "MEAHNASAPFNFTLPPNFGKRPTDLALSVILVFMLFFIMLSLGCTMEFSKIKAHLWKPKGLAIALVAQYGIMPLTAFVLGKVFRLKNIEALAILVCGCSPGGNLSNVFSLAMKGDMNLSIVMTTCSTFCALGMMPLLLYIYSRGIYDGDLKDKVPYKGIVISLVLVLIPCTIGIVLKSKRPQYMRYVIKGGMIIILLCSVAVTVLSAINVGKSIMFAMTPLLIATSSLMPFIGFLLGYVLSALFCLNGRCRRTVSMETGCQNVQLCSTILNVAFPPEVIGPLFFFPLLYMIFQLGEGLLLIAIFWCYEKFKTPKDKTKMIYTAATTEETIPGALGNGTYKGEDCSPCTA", "test": "In vitro transporter inhibition", "format": "in vitro ADME", "settings": "data on file"}, "CYP3A [12]": {"system": "CYP3A", "settings": "in vitro; cited from earlier work", "remark": "listed apart in the source"}, "OATP1B1 [13]": {"system": "OATP1B1", "settings": "in vitro; cited from earlier work"}, "P-gp [14]": {"system": "P-gp", "settings": "in vitro; data on file; cited from earlier work"}, "[15]": {"settings": "cited from earlier work", "remark": "listed apart in the source"}, "OATP1B1 [16]": {"system": "OATP1B1", "settings": "in vitro; cited from earlier work", "remark": "listed apart in the source"}, "CYP2C19": {"system": "CYP2C19", "settings": "in vitro; cited from earlier work"}, "[17]": {"system": "CatA and carboxylesterase (CES) 1", "settings": "cited from earlier work"}, "[18]": {"settings": "oral midazolam 0.075 mg/kg, simeprevir 150 mg, fed, 16 healthy subjects, least squares mean ratio (90 % CI)"}, "[19]": {"settings": "simeprevir 150 mg once daily + erythromycin 500 mg three times daily, days 1–7, fed, 24 healthy subjects"}, "[20]": {"settings": "simeprevir 200 mg once daily + ritonavir 100 mg twice daily, fed, 12 healthy male subjects"}, "[21]": {"settings": "interim analysis, simeprevir 150 mg once daily"}, "[22]": {"settings": "interim analysis, simeprevir 150 mg once daily, vs historical data on simeprevir alone"}, "[23]": {"settings": "vs subjects with normal renal function"}}, "note": "Read-outs that look alike come from different tables or passages of the source."}
{"smiles": "Cn1c(=O)c2c(ncn2C)n(C)c1=O", "note": "[Caffeine, caffeine]", "values": [{"measurement": "increase in exposure with coadministration of simeprevir", "setting": "CYP1A2", "result": 12, "unit": "%"}]}
{"smiles": "Cc1ncc2n1-c1ccc(Cl)cc1C(c1ccccc1F)=NC2", "note": "[Midazolam, midazolam]", "values": [{"measurement": "AUClast ratio of probe with vs without simeprevir", "setting": "CYP3A (intestinal); [18]", "result": "1.45 (1.35–1.57)"}, {"measurement": "Cmax ratio of probe with vs without simeprevir", "setting": "CYP3A (intestinal); [18]", "result": "1.31 (1.19–1.45)"}, {"measurement": "increase in exposure with coadministration of simeprevir", "setting": "CYP3A (intestinal); oral midazolam", "result": 31, "unit": "%"}]}
{"smiles": "COc1ccc2c(O[C@@H]3C[C@H]4C(=O)N[C@]5(C(=O)NS(=O)(=O)C6CC6)C[C@H]5/C=C\\CCCCN(C)C(=O)[C@@H]4C3)cc(-c3nc(C(C)C)cs3)nc2c1C", "note": "[simeprevir]", "values": [{"measurement": "substrate of MRP2", "setting": "MRP2 [1]", "result": "substrate"}, {"measurement": "inhibition of P-gp", "setting": "P-gp [2]", "result": "inhibitor"}, {"measurement": "inhibition of CYP2C8", "setting": "CYP2C8", "result": "moderate inhibitor"}, {"measurement": "bound to plasma proteins", "setting": "plasma proteins", "result": "> 99.9", "unit": "%"}, {"measurement": "inhibition of CYP2A6", "setting": "CYP2A6", "result": "moderate inhibitor"}, {"measurement": "inhibition of BCRP", "setting": "BCRP", "result": "inhibitor"}, {"measurement": "fold increase in mean AUC24h of simeprevir with erythromycin", "setting": "[3]; [19]", "result": 7.47, "unit": "fold"}, {"measurement": "fold increase in mean Cmax of simeprevir with erythromycin", "setting": "[3]; [19]", "result": 4.53, "unit": "fold"}, {"measurement": "fold increase in mean Cmin of simeprevir with erythromycin", "setting": "[3]; [19]", "result": 12.74, "unit": "fold"}, {"measurement": "fold increase in AUC24h of simeprevir with ritonavir, multiple doses", "setting": "[3]; [20]", "result": 7.18, "unit": "fold"}, {"measurement": "fold increase in Cmax of simeprevir with ritonavir, multiple doses", "setting": "[3]; [20]", "result": 4.70, "unit": "fold"}, {"measurement": "fold increase in Cmin of simeprevir with ritonavir, multiple doses", "setting": "[3]; [20]", "result": 14.35, "unit": "fold"}, {"measurement": "AUC24h of simeprevir, historical data in the absence of cyclosporine", "setting": "[4]", "result": "45,202 ng·h/mL"}, {"measurement": "Cmax of simeprevir, historical data in the absence of cyclosporine", "setting": "[4]", "result": 3235, "unit": "ng/mL"}, {"measurement": "AUC24h of simeprevir in subjects receiving cyclosporine", "setting": "[4]; day 14, simeprevir 150 mg once daily", "result": "262,618 ng·h/mL"}, {"measurement": "Cmax of simeprevir in subjects receiving cyclosporine", "setting": "[4]; day 14, simeprevir 150 mg once daily, n = 9", "result": "15,321 ng/mL"}, {"measurement": "AUC24h of simeprevir in subjects receiving tacrolimus", "setting": "[4]; [21]", "result": "83,808 ng·h/mL"}, {"measurement": "Cmax of simeprevir in subjects receiving tacrolimus", "setting": "[4]; [21]", "result": 5780, "unit": "ng/mL"}, {"measurement": "increase in AUC24h of simeprevir with tacrolimus", "setting": "[4]; [22]", "result": 85, "unit": "%"}, {"measurement": "increase in Cmax of simeprevir with tacrolimus", "setting": "[4]; [22]", "result": 79, "unit": "%"}, {"measurement": "inhibition of BSEP", "setting": "[5]", "result": "inhibitor"}, {"measurement": "substrate of BCRP", "setting": "[6]", "result": "substrate"}, {"measurement": "inhibition of OATP1B3", "setting": "OATP1B3 [7]", "result": "inhibitor"}, {"measurement": "inhibition of CYP2D6", "setting": "CYP2D6", "result": "moderate inhibitor"}, {"measurement": "substrate of CYP3A", "setting": "CYP3A [8]", "result": "substrate"}, {"measurement": "hepatic uptake by OATP1B3", "setting": "OATP1B3 [9]", "result": "mediate hepatic uptake"}, {"measurement": "inhibition of MRP2", "setting": "MRP2 [10]", "result": "inhibitor"}, {"measurement": "inhibition of cathepsin A", "setting": "cathepsin A", "result": "no clinically relevant inhibition"}, {"measurement": "inhibition of NTCP", "setting": "[11]", "result": "inhibitor"}, {"measurement": "inhibition of CYP3A", "setting": "CYP3A [12]", "result": "weak inhibitor"}, {"measurement": "inhibition of OATP1B1", "setting": "OATP1B1 [13]", "result": "inhibitor"}, {"measurement": "substrate of P-gp", "setting": "P-gp [14]", "result": "substrate"}, {"measurement": "mean terminal elimination half-life", "setting": "[15]; HCV-infected subjects (n = 6)", "result": "approximately 41 h"}, {"measurement": "increase in AUC with food", "setting": "[15]; high-fat/high-caloric breakfast", "result": 61, "unit": "%"}, {"measurement": "AUC in subjects infected with HCV relative to uninfected subjects", "setting": "[15]; human, in vivo", "result": "2–3 times"}, {"measurement": "increase in exposure in moderate hepatic impairment", "setting": "[15]; non-HCV-infected subjects vs matched healthy controls", "result": "approximately 2 fold"}, {"measurement": "increase in exposure in severe compared with moderate hepatic impairment", "setting": "[15]; non-HCV-infected subjects", "result": "approximately 2 fold"}, {"measurement": "increase in AUC with food", "setting": "[15]; normal-caloric breakfast", "result": 69, "unit": "%"}, {"measurement": "time to steady state", "setting": "[15]; once-daily dosing", "result": 7, "unit": "days"}, {"measurement": "time of maximum plasma concentration (Cmax) postdose", "setting": "[15]; oral", "result": "4 to 6", "unit": "h"}, {"measurement": "dose proportionality of Cmax and AUC", "setting": "[15]; repeated doses between 75 mg and 200 mg daily", "result": "more than dose proportionally"}, {"measurement": "mean terminal elimination half-life", "setting": "[15]; subjects without HCV infection", "result": "10 to 13", "unit": "h"}, {"measurement": "increase in AUC24h in severe renal impairment", "setting": "[15]; [23]", "result": 62, "unit": "%"}, {"measurement": "increase in Cmax in severe renal impairment", "setting": "[15]; [23]", "result": 34, "unit": "%"}, {"measurement": "hepatic uptake by OATP1B1", "setting": "OATP1B1 [16]", "result": "mediate hepatic uptake"}, {"measurement": "inhibition of CYP2C19", "setting": "CYP2C19", "result": "weak inhibitor"}]}
{"smiles": "CC(C)OC(=O)[C@H](C)N[P@](=O)(OC[C@H]1O[C@@H](n2ccc(=O)[nH]c2=O)[C@](C)(F)[C@@H]1O)Oc1ccccc1", "note": "[sofosbuvir]", "values": [{"measurement": "conversion to metabolite GS-331007", "setting": "[17]", "result": "> 90", "unit": "%"}]}
